Assay results from US20240383901A1, “SUBSTITUTED PYRROLO[2,3-D]PYRIMIDINES, THEIR PREPARATION AND THEIR THERAPEUTIC APPLICATION” (SANOFI, priority 2021, published 2024).

What was measured:
full-length LRRK2 G2019S = molecular target: T1, full-length LRRK2 G2019S (Homo sapiens, UniProt Q5S007, G2019S); test: LRRK2-G2019S kinase activity assay (Lanthascreen TR-FRET); assay type: biochemical; conditions: 1.1 mM ATP
T1 construct: DYKDDDDK (FLAG)
Protocol: (§1) The potency of compounds was evaluated in vitro using the Lanthascreen® technology (ThermoFisher Scientific).
(§2) In a typical experiment, the reaction assay buffer contains 50 mM Tris pH8.2, 1 mM EGTA, 2.5 mM MgCl2, 0.05% Triton X100, 0.15% BSA and 1 mM DTT. The detection of the assay is performed using 1 nM Terbium labeled anti-phospho-LRRKtide (ThermoFisher Scientific) diluted in a TR-FRET buffer (ThermoFisher Scientific).
(§3) The experimental procedure was performed with Greiner small volume® 384-well. […] The working solution of compounds was prepared in a separate Greiner microplate.
(§4) The kinase reaction was initiated by addition of the ATP/LRRKtide substrate mix diluted in the reaction assay buffer. The reaction mix was incubated for at least 10 minutes at room temperature (initial velocity conditions). Reaction was stopped by addition of Terbium labeled anti-phospho-LRRKtide diluted into the detection buffer supplemented with EDTA (ThermoFisher Scientific). Plates are incubated for at least 30 minutes at room temperature and read on an Envision™ multimode plate reader (PerkinElmer) with LanthaScreen™. The TR-FRET 520:495 nm emission ratio was calculated and used to determine the IC50 value from a dose response curve fit to the 4-parameter logistic equation. The activity with respect to LRRK2 kinase in this test is given by the concentration which inhibits 50% of the LRRK2 activity (or IC50) in nM.

[1] = molecular target: T2, full-length LRRK2 wild type (Homo sapiens, UniProt Q5S007); test: LRRK2 WT assay (Assay A, Lanthascreen TR-FRET, 500 uM ATP); assay type: biochemical; conditions: Assay A (values without *)
T2 construct: DYDDDDK tagged full-length LRRK2 wild type is used
Protocol: as §1, §2, §3, §4

T2 sequence (Q5S007 whole entry): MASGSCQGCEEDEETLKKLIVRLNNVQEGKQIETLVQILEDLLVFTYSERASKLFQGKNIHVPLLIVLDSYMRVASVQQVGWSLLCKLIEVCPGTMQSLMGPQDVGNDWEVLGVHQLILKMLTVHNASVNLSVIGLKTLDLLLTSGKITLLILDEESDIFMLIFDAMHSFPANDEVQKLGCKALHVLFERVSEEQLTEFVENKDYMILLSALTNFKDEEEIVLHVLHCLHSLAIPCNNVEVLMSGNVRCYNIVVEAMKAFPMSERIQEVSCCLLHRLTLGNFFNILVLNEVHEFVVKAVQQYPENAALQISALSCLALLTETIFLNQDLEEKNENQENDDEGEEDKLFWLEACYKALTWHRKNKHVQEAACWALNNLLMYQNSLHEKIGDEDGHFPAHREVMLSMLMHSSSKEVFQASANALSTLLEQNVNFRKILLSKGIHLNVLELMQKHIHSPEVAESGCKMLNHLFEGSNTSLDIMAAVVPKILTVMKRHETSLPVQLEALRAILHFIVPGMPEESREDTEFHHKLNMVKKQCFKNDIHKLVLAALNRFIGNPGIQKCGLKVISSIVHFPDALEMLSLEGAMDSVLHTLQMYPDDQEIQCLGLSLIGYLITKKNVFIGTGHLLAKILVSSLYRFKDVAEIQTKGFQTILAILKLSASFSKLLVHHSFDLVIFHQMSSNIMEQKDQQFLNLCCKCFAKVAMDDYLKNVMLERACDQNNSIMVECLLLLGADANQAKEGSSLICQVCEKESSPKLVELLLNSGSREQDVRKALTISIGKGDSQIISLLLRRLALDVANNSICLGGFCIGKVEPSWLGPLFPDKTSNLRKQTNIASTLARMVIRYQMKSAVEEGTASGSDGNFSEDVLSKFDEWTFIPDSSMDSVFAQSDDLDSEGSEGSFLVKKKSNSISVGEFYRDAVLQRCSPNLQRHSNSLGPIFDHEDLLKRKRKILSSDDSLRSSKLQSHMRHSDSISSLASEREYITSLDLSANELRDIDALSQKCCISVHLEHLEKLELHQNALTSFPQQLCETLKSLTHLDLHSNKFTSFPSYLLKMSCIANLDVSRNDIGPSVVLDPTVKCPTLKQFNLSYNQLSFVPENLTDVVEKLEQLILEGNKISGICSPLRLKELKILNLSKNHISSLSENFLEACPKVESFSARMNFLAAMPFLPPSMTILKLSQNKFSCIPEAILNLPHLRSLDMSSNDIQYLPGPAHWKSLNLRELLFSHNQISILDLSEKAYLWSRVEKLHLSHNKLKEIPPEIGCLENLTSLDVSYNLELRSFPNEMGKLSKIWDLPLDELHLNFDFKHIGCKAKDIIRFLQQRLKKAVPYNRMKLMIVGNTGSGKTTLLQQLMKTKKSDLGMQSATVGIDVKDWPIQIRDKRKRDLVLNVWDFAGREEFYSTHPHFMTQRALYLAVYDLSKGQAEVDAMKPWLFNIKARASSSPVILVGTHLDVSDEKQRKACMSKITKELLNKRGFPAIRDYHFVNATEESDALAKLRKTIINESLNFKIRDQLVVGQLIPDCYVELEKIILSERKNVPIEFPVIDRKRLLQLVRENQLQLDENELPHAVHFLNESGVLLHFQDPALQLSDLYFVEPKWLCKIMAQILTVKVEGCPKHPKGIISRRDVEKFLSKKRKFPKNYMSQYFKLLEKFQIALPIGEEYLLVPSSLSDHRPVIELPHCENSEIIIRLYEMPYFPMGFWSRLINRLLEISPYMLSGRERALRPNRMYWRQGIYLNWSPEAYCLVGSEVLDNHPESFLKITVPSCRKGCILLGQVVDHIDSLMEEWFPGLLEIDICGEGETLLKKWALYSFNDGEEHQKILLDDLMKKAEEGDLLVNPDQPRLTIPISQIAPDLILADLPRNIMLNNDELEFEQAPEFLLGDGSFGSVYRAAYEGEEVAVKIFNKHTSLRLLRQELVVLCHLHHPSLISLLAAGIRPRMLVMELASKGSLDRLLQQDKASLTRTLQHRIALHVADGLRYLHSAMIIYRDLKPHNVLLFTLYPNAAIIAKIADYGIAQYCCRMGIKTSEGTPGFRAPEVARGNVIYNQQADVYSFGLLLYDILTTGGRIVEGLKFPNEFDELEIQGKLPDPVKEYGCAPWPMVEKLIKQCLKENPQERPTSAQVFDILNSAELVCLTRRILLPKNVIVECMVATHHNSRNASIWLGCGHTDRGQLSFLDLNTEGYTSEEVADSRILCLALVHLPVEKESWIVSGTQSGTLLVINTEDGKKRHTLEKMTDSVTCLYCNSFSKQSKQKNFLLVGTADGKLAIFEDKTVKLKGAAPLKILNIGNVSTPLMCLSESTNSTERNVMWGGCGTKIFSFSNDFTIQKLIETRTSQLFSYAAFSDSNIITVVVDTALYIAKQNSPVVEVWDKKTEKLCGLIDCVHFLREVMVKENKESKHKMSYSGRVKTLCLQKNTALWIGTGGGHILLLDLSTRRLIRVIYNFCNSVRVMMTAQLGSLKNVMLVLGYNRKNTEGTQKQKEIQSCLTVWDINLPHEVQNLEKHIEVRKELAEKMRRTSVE
T1 sequence (Q5S007 whole entry G2019S): as the sequence (Q5S007 whole entry) above, with G2019S counted along it

**Q.** With `C[C@@H]1COC[C@H]1n1c(C#N)cc2cnc(Nc3cn(C)nc3OC3COC3)nc21` [Example 44, 2-((1-Methyl-3-(oxetan-3-yloxy)-1 H-pyrazol-4-yl)amino)-7-((3S,4S)-4-methyltetrahydrofuran-3-yl)-7H-pyrrolo[2,3-d]pyrimidine-6-carbonitrile] as the molecule, how does the IC50 (full-length LRRK2 G2019S) read?
**A.** 191 nM

**Q.** And the IC50 [1]?
**A.** 196 nM

**Q.** `C[C@@H]1COCC[C@H]1n1c(C#N)cc2cnc(Nc3cn(CCO)nc3OC3COC3)nc21` (single isomer, unassigned) [Example 160, 2-((1-(2-hydroxyethyl)-3-(oxetan-3-yloxy)-1 H-pyrazol-4-yl)amino)-7-(trans-3-methyltetrahydro-2H-pyran-4-yl)-7H-pyrrolo[2,3-d]pyrimidine-6-carbonitrile] was tested. Which IC50 (full-length LRRK2 G2019S) did it give?
**A.** 258 nM

**Q.** What about the IC50 [1] of the same molecule?
**A.** 325 nM

**Q.** Which IC50 (full-length LRRK2 G2019S) does the source give for `COC[C@H](C)n1c(C#N)cc2cnc(Nc3cn(C)nc3O[C@@H]3CO[C@H]3C)nc21` (single isomer, unassigned) [Example 88] here?
**A.** 12 nM

**Q.** What about the IC50 [1] of the same molecule?
**A.** 20 nM

**Q.** For `[2H]C([2H])([2H])n1cc(Nc2ncc3cc(C#N)n([C@@H](C)COC)c3n2)c(O[C@@H]2CO[C@H]2C)n1` (single isomer, unassigned) [Example 90], which IC50 (full-length LRRK2 G2019S) is on record?
**A.** 8 nM

**Q.** What about the IC50 [1] of the same molecule?
**A.** 16 nM

**Q.** With `CC(Oc1nn(C)cc1Nc1ncc2cc(C#N)n([C@H]3COC[C@@H]3C)c2n1)C(F)(F)F` (single isomer, unassigned) [Example 22] as the molecule, how does the IC50 (full-length LRRK2 G2019S) read?
**A.** 25 nM

**Q.** What about the IC50 [1] of the same molecule?
**A.** 30 nM

**Q.** With `COCC(C)n1c(C#N)cc2cnc(Nc3cn(C4CCC(C)(O)CC4)nc3OC3CC3)nc21` [Example 107, trans-2-((3-cyclopropoxy-1-(4-hydroxy-4-methylcyclohexyl)-1H-pyrazol-4-yl)amino)-7-((S)-1-methoxypropan-2-yl)-7H-pyrrolo[2,3-d]pyrimidine-6-carbonitrile] as the molecule, how does the IC50 (full-length LRRK2 G2019S) read?
**A.** 81 nM

**Q.** What about the IC50 [1] of the same molecule?
**A.** 90 nM

**Q.** What does the source list for `C[C@@H]1OC[C@H]1n1c(C#N)cc2cnc(Nc3cn(C)nc3OC3COC3)nc21` (single isomer, unassigned) [Example 76, 7-[(trans)-2-methyloxetan-3-yl]-2-[[1-methyl-3-(oxetan-3-yloxy)pyrazol-4-yl]amino]pyrrolo[2,3-d]pyrimidine-6-carbonitrile]?
**A.** IC50 (full-length LRRK2 G2019S): 200 nM; IC50 [1]: 241 nM

**Q.** With `COC[C@H](C)n1c(C#N)cc2cnc(Nc3cn(CCO)nc3OC3COC3)nc21` [Example 139, (S)-2-((1-(2-hydroxyethyl)-3-(oxetan-3-yloxy)-1 H-pyrazol-4-yl)amino)-7-(1-methoxypropan-2-yl)-7H-pyrrolo[2,3-d]pyrimidine-6-carbonitrile] as the molecule, how does the IC50 (full-length LRRK2 G2019S) read?
**A.** 20 nM

**Q.** What about the IC50 [1] of the same molecule?
**A.** 22 nM

**Q.** Which IC50 (full-length LRRK2 G2019S) does the source give for `CO[C@H]1COC[C@H]1n1c(C#N)cc2cnc(Nc3ccc(C(C)(C)O)cc3OC3COC3)nc21` [Example 55, 2-((4-(2-Hydroxypropan-2-yl)-2-(oxetan-3-yloxy)phenyl)amino)-7-((3R,4R)-4-methoxytetrahydrofuran-3-yl)-7H-pyrrolo[2,3-d]pyrimidine-6-carbonitrile] here?
**A.** 18 nM

**Q.** And the IC50 [1]?
**A.** 41 nM

**Q.** With `COCCn1cc(Nc2ncc3cc(C#N)n(C4CCOCC4)c3n2)c(OC2CC2)n1` [Example 122, 2-((3-Cyclopropoxy-1-(2-methoxyethyl)-1 H-pyrazol-4-yl)amino)-7-(tetrahydro-2H-pyran-4-yl)-7H-pyrrolo[2,3-d]pyrimidine-6-carbonitrile] as the molecule, how does the IC50 (full-length LRRK2 G2019S) read?
**A.** 222 nM

**Q.** What about the IC50 [1] of the same molecule?
**A.** 153 nM

**Q.** What does the source list for `CC(=O)N1CC(Oc2nn(C)cc2Nc2ncc3cc(C#N)n([C@H]4COC[C@@H]4C)c3n2)C1` [Example 1, 2-[[3-(1-acetylazetidin-3-yl)oxy-1-methyl-pyrazol-4-yl]amino]-7-[(3R,4R)-4-methyltetrahydrofuran-3-yl]pyrrolo[2,3-d]pyrimidine-6-carbonitrile]?
**A.** IC50 (full-length LRRK2 G2019S): 5 nM; IC50 [1]: 6 nM

**Q.** For `CC(CO)n1cc(Nc2ncc3cc(C#N)n([C@H]4COC[C@@H]4C)c3n2)c(OC2COC2)n1` (stereo partly drawn) [Example 9, 2-[[1-[2-Hydroxy-1-methyl-ethyl]-3-(oxetan-3-yloxy)pyrazol-4-yl]amino]-7-[(3R,4R)-4-methyltetrahydrofuran-3-yl]pyrrolo[2,3-d]pyrimidine-6-carbonitrile], which IC50 (full-length LRRK2 G2019S) is on record?
**A.** 5 nM

**Q.** And the IC50 [1]?
**A.** 5 nM

**Q.** How did the IC50 (full-length LRRK2 G2019S) turn out when `COC[C@H](C)n1c(C#N)cc2cnc(Nc3cn(CCO)nc3OC3CCOC3)nc21` (mixture of isomers) [Example 151, 2-((1-(2-hydroxyethyl)-3-((tetrahydrofuran-3-yl)oxy)-1 H-pyrazol-4-yl)amino)-7-((S)-1-methoxypropan-2-yl)-7H-pyrrolo[2,3-d]pyrimidine-6-carbonitrile] was run?
**A.** 27 nM

**Q.** And the IC50 [1]?
**A.** 31 nM

**Q.** Which IC50 (full-length LRRK2 G2019S) does the source give for `COCC(C)n1cc(Nc2ncc3cc(C#N)n(C4CCOCC4)c3n2)c(OC2CC2)n1` (single isomer, unassigned) [Example 127, 2-((3-cyclopropoxy-1-(1-methoxypropan-2-yl)-1 H-pyrazol-4-yl)amino)-7-(tetrahydro-2H-pyran-4-yl)-7H-pyrrolo[2,3-d]pyrimidine-6-carbonitrile] here?
**A.** 183 nM

**Q.** What about the IC50 [1] of the same molecule?
**A.** 144 nM

**Q.** With `[2H]C([2H])([2H])n1cc(Nc2ncc3cc(C#N)n([C@H]4COC[C@@H]4C)c3n2)c(OC2COC2)n1` [Example 19, 2-((1-(Methyl-d3)-3-(oxetan-3-yloxy)-1 H-pyrazol-4-yl)amino)-7-((3R,4R)-4-methyltetrahydrofuran-3-yl)-7H-pyrrolo[2,3-d]pyrimidine-6-carbonitrile] as the molecule, how does the IC50 (full-length LRRK2 G2019S) read?
**A.** 5 nM

**Q.** And the IC50 [1]?
**A.** 5 nM

**Q.** Which IC50 (full-length LRRK2 G2019S) does the source give for `C[C@H]1COC[C@@H]1n1c(C#N)cc2cnc(Nc3cn(C4CC4)nc3OC3COC3)nc21` [Example 37, 2-((1-Cyclopropyl-3-(oxetan-3-yloxy)-1H-pyrazol-4-yl)amino)-7-((3R,4R)-4-methyltetrahydrofuran-3-yl)-7H-pyrrolo[2,3-d]pyrimidine-6-carbonitrile] here?
**A.** 6 nM

**Q.** And the IC50 [1]?
**A.** 8 nM

**Q.** What does the source list for `C[C@@H]1OC[C@H]1Oc1nn(C)cc1Nc1ncc2cc(C#N)n([C@H]3COC[C@@H]3C)c2n1` (single isomer, unassigned) [Example 7]?
**A.** IC50 (full-length LRRK2 G2019S): 2 nM; IC50 [1]: 2 nM

**Q.** Which results are given for `CO[C@@H]1COC[C@H]1n1c(C#N)cc2cnc(Nc3cn(C)nc3OC3COC3)nc21` (racemic) [Example 70, 7-((trans)-4-methoxytetrahydrofuran-3-yl)-2-((1-methyl-3-(oxetan-3-yloxy)-1 H-pyrazol-4-yl)amino)-7H-pyrrolo[2,3-d]pyrimidine-6-carbonitrile]?
**A.** IC50 (full-length LRRK2 G2019S): 160 nM; IC50 [1]: 270 nM

**Q.** Which IC50 (full-length LRRK2 G2019S) does the source give for `C[C@H]1COC[C@@H]1n1c(C#N)cc2cnc(Nc3cn(C4COC4)nc3OC3CC3)nc21` [Example 30, 2-((3-Cyclopropoxy-1-(oxetan-3-yl)-1H-pyrazol-4-yl)amino)-7-((3R,4R)-4-methyltetrahydrofuran-3-yl)-7H-pyrrolo[2,3-d]pyrimidine-6-carbonitrile] here?
**A.** 3 nM

**Q.** What about the IC50 [1] of the same molecule?
**A.** 5 nM

**Q.** How did the IC50 (full-length LRRK2 G2019S) turn out when `C[C@H]1COC[C@@H]1n1c(C#N)cc2cnc(Nc3cn(C(C)(C)C#N)nc3OC3COC3)nc21` [Example 27, 2-((1-(2-Cyanopropan-2-yl)-3-(oxetan-3-yloxy)-1H-pyrazol-4-yl)amino)-7-((3R,4R)-4-methyltetrahydrofuran-3-yl)-7H-pyrrolo[2,3-d]pyrimidine-6-carbonitrile] was run?
**A.** 1 nM

**Q.** What about the IC50 [1] of the same molecule?
**A.** 1 nM

**Q.** `COCC(C)n1c(C#N)cc2cnc(Nc3cn(C4CCC(C)(O)CC4)nc3OC(C)C)nc21` [Example 105, trans-2-((1-(4-hydroxy-4-methylcyclohexyl)-3-isopropoxy-1H-pyrazol-4-yl)amino)-7-((S)-1-methoxypropan-2-yl)-7H-pyrrolo[2,3-d]pyrimidine-6-carbonitrile] was tested. Which IC50 (full-length LRRK2 G2019S) did it give?
**A.** 57 nM

**Q.** And the IC50 [1]?
**A.** 62 nM

**Q.** What does the source list for `COCC(C)n1cc(Nc2ncc3cc(C#N)n([C@@H](C)COC)c3n2)c(OC2COC2)n1` (single isomer, unassigned) [Example 129]?
**A.** IC50 (full-length LRRK2 G2019S): 37 nM; IC50 [1]: 41 nM

**Q.** `COCC(C)n1cc(Nc2ncc3cc(C#N)n([C@H]4COC[C@@H]4C)c3n2)c(OC2COC2)n1` (stereo partly drawn) [Example 128, 2-((1-(1-Methoxypropan-2-yl)-3-(oxetan-3-yloxy)-1 H-pyrazol-4-yl)amino)-7-((3R,4R)-4-methyltetrahydrofuran-3-yl)-7H-pyrrolo[2,3-d]pyrimidine-6-carbonitrile] was tested. Which IC50 (full-length LRRK2 G2019S) did it give?
**A.** 104 nM

**Q.** And the IC50 [1]?
**A.** 81 nM

**Q.** What does the source list for `COCn1cc(Nc2ncc3cc(C#N)n([C@H]4COC[C@@H]4C)c3n2)c(OC2CC2)n1` [Example 35, 2-((3-Cyclopropoxy-1-(methoxymethyl)-1H-pyrazol-4-yl)amino)-7-((3R,4R)-4-methyltetrahydrofuran-3-yl)-7H-pyrrolo[2,3-d]pyrimidine-6-carbonitrile]?
**A.** IC50 (full-length LRRK2 G2019S): 6 nM; IC50 [1]: 4 nM

**Q.** How did the IC50 (full-length LRRK2 G2019S) turn out when `C[C@H]1COC[C@@H]1n1c(C#N)cc2cnc(Nc3cn(CS(C)(=O)=O)nc3OC3CC3)nc21` [Example 36, 2-((3-Cyclopropoxy-1-((methylsulfonyl)methyl)-1H-pyrazol-4-yl)amino)-7-((3R,4R)-4-methyltetrahydrofuran-3-yl)-7H-pyrrolo[2,3-d]pyrimidine-6-carbonitrile] was run?
**A.** 1 nM

**Q.** And the IC50 [1]?
**A.** 1 nM

**Q.** `[2H]C([2H])([2H])n1cc(Nc2ncc3cc(C#N)n([C@@H](C)COC)c3n2)c(O[C@@H]2CO[C@H]2C)n1` (single isomer, unassigned) [Example 89] was tested. Which IC50 [1] did it give?
**A.** 9 nM

**Q.** With `COC[C@H](C)n1c(C#N)cc2cnc(Nc3cn(C)nc3O[C@@H]3CO[C@H]3C)nc21` (single isomer, unassigned) [Example 87] as the molecule, how does the IC50 [1] read?
**A.** 8 nM
